Test results as given in patent US8507445B2, “Compositions and methods of use of targeting peptides for diagnosis and therapy of human cancer” (Board of Regents, The University of Texas System, priority 2002, dated 2013).
Entries after “also recorded” stand apart in the source; their conditions may differ.

Experiments:
IL-11Rα = target: T1, IL-11Rα (Homo sapiens, UniProt Q14626); test: Ligand-receptor binding assay in vitro with immobilized receptor; settings: for phage binding to immobilized receptor: recombinant IL-11Rα
T1 sequence (Q14626 23-422): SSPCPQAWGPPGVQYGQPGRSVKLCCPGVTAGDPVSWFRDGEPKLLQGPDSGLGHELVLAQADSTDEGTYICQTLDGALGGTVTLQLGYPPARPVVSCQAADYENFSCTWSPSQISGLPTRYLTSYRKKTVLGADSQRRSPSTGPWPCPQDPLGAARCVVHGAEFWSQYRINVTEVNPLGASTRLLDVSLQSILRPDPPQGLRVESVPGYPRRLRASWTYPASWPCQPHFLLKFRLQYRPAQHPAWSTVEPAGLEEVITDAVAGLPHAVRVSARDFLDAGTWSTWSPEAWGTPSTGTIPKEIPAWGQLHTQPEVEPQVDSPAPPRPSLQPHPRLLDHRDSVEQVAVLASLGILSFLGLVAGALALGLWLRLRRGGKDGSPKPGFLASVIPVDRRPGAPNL
Description: (§1) Recombinant IL-11Rα vascular endothelial growth factor receptor-1 (VEGFR1) or leptin receptor (OB—R) were incubated with phage displaying the […] (SEQ ID NO:37) peptide. VEGFR1 was used as a representative vascular receptor, while OB—R was used because it shares a co-receptor with IL-11Rα. An unrelated phage clone displaying the peptide […] (SEQ ID NO:38) and insertless fd-tet phage were used as controls. […] Binding of […] (SEQ ID NO:37)-phage to IL-11Rα was specific, since it was inhibited by the native IL-11 ligand in a concentration-dependent manner (not shown). […] These observations with normal prostate tissues were followed by an examination of the expression of IL-11Rα in tumors, as discussed in the present Example.

prostate = test: In vivo phage display in a human patient, tripeptide motif analysis; settings: motifs in peptides isolated from prostate, compared with unselected phage library
Text: A large-scale preparation of a CX7C (C, cysteine; X, any amino acid residue) phage display random peptide library was optimized to create the highest possible insert diversity (Pasqualini et al., 2000). The diversity of the library was about 2×10^8 and its final titer was about 10^12 transducing units (TU)/ml. For biopanning with human subjects, use of a large-scale phage display library (diversity about 2×10^8) is advantageous compared to the smaller scale libraries used in mouse studies. Short-term intravenous infusion of the phage library (a total dose of 10^14 phage TU suspended in 100 ml of saline) into the patient was followed by multiple representative tissue biopsies. Prostate and liver samples were obtained by needle biopsy under ultrasonographic guidance. Skin, fat tissue, and skeletal muscle samples were obtained by surgical excision. Bone marrow needle aspirates and core biopsies were also obtained. Histopathological diagnosis was determined by examination of frozen sections processed from tissues obtained at the bedside.
Triplicate samples were processed for host bacterial infection, phage recovery, and histopathological analysis. In brief, tissues were weighed, ground with a glass Dounce homogenizer, suspended in 1 ml of Dulbecco Modified Eagle's medium (DMEM) containing proteinase inhibitors (DMEM-prin; 1 mM PMSF, 20 μg/ml aprotinin, and 1 μg/ml leupeptin), vortexed, and washed three times with DMEM-prin. The human tissue homogenates were incubated with 1 ml of host bacteria (log phase E. coli K91kan; OD600˜2). Aliquots of the bacterial culture were plated onto Luria-Bertani agar plates containing 40 μg/ml tetracycline and 100 μg/ml of kanamycin. Plates were incubated overnight at 37° C. Bacterial colonies were processed for sequencing of phage inserts recovered from each tissue and from unselected phage library. Human samples were handled with universal blood and body fluid precautions.
A high-throughput character pattern recognition program (M.D. Anderson Cancer Center, Biostatistics, Houston, Tex.) was developed to automate the analysis of the peptide motifs derived from phage screenings. […]
In order to identify the motifs that were enriched in the screening, the count for each tripeptide motif within each tissue was compared with the count for that tripeptide motif within the unselected library. Starting from a CX7C peptide insert, counts were recorded for all overlapping interior tripeptide motifs, subject only to reflection and single-voting restrictions. […] The significance of association of a given allocation of counts was assessed by Fisher's exact test (one-tailed). […]

[1] = test system: immunoglobulins from the serum of metastatic prostate cancer patients; test: Biopanning of CX6C phage library on IgGs from serum of prostate cancer patients A, B, C; assay type: binding, human; settings: second and third rounds; patient A, B or C that yielded the peptide
Text: Sera was selected from patients diagnosed with androgen-dependent and androgen-independent prostate cancer. A CX6C peptide library was screened against this pool of IgGs in a two-step procedure. First, the peptide library was pre-cleared against a pool of purified IgGs from normal serum samples using Protein G affinity chromatography. This step removed peptides from the phage display library that bound to immunoglobulins from patients without prostate cancer. Next, the pre-cleared peptide library was screened against the pool of purified IgGs from the serum of prostate cancer patients. This step selected peptides binding specifically to IgGs elicited against prostate cancer.
A 6-mer cyclic peptide (CX6C) phage display library was used for the biopanning. To select peptides specific to the serum antibodies of cancer patients, a pre-clearing stage was employed to remove non-specific peptides by pre-absorbing the peptide library onto purified IgGs from pooled normal serum (five healthy male individuals). The pre-cleared peptide library was screened onto the purified IgGs from the serum of prostate cancer patients. In brief, 10^9 transducing units (T.U.) of a CX6C cyclic peptide phage library were incubated with IgG antibodies from 50 μl of normal serum immobilized on 50 μl of protein G (Gibco BRL) for 1 hour at 4° C. This was followed by affinity selection on the immobilized IgG antibodies from prostate cancer patient serum for 2 hours at 4° C. Phage peptides specifically bound to IgGs elicited against prostate cancer were eluted with 100 μl of 0.1 M glycine buffer, pH 2.2, neutralized by the addition of 10 μl 1M Tris pH 9.0, and used to infect E. coli strain K91. Ten-fold serial dilutions of the infected solution were spread onto agar plates containing 40 μg/ml of tetracycline and grown overnight. Two hundred colonies were picked, amplified, and precipitated for a subsequent round of panning. A total of three rounds were performed. Individual phage clones were picked for PCR and the insert DNA was sequenced.

[2] = test system: serum antibodies of prostate cancer patients; test: ELISA of serum reactivity against GST-fusion peptides; assay type: binding, human
Description: A 20 μg/ml solution of purified GST or GST-fusion proteins in 0.1M NaHCO3 was used to coat maxisorp multi-well plates (Nalge Nunc International Corporation) and incubated overnight at 4° C. The plates were blocked in a blocking buffer (4% milk, 2% casein, and 0.05% Tween-20) for 3-4 hours. A series of […] dilutions (1:100-1:1200) of sera from prostate cancer patients or healthy individuals was added and incubated for 1.5 hours and then washed five times with washing buffer (1% milk, 0.5% casein, and 0.025% Tween-20), followed by incubation at 4° C. with anti-human alkaline phosphatase-conjugated antibodies (Gibco). The plates were then washed six times in washing buffer and developed using p-NPP (Sigma) as a substrate. An automatic ELISA plate reader (BIO-TEK instrument) recorded the results at OD405 nm.
Probabilities of survival for each group were estimated using the Kaplan-Meier method. A log-rank test was implemented in order to detect significant differences between the groups. Reactivity was considered to be detected if the ratio between GST-peptide and GST alone was greater or equal to two by the ELISA data. A Log-Rank test was used to determine statistical differences between groups. A statistical CART analysis (Classification And Regression Tree) was used to identify the best cut-off point for determining reactivity to GRP78. In this method, the censored survival data were transformed into a single uncensored data value (the so-called “null martingale residual”), which was used as input into a standard regression tree algorithm. A cut-off point of 0.95 was determined by this program

adipose tissue = test: Validation of adipose homing phage in vivo; set-up: species or system obese mice; settings: mouse
Text: A substractive phage display protocol (see Example 8 below) was used to isolate fat targeting peptides from a genetically obese mouse (Zhang et al., Nature, 372:425-432, 1994; Pelleymounter et al., Science 269:540-543, 1994). Phage that had been subjected to biopanning in obese mice were post-cleared in a normal mouse. The fat-targeting peptides isolated included TRNTGNI (SEQ ID NO:72), FDGQDRS (SEQ ID NO:73); WGPKRL (SEQ ID NO:74); WGESRL (SEQ ID NO:75); VMGSVTG (SEQ ID NO:76), KGGRAKD (SEQ ID NO:77), RGEVLWS (SEQ ID NO:78), TREVHRS (SEQ ID NO:79) and HGQGVRP (SEQ ID NO:80).
The fat homing clones selected were: FA—KGGRAKD (SEQ ID NO:77), FC—RGEVLWS (SEQ ID NO:78), FE—TREVHRS (SEQ ID NO:79) and FX—VMGSVTG (SEQ ID NO:76).

normal prostate = test: Phage overlay assay on human tissue sections; assay type: binding
Text: (§2) To test the tissue specificity of the IL-11 peptide mimic, a phage overlay assay was developed to evaluate receptor-ligand interactions in tissue sections, using the motif RRAGGS (SEQ ID NO:34) (Arap et al., Nature Med. 8:121-127, 2002).

skin = test: Phage overlay assay on human tissue sections; assay type: binding
Text: as §2

MDA-MB-435 cells = test: Enhancement of phage transduction by genotoxic agents or trans-complementation; assay type: cell-based, human; settings: cells infected with targeted phage, 72 hours post-infection; drugs 10 μM
Description: Semi-confluent MDA-MB-435 cells were infected with 10^5 TU of phage per cell for 4 hours in serum free media, after which fresh medium supplemented with FCS was added (no phage were washed out or removed). In some experiments, a phage admixture of forward and reverse clones at 10^10 TU (forward/reverse molar ratio=1) was tested. Next, cells were incubated for 36 hours followed by the addition of genotoxic drugs (topotecan, 10 μM; cisplatin, 10 μM) or administration of UV radiation (15 J/m^2) with a cross-linker apparatus (UV Stratalinker Model 2400; Stratagene). At 72 hours post-infection, the cells were analyzed for transduction of a reporter gene (β-gal or GFP), and gene expression was normalized per cell number relative to controls.

leptin receptor (OB—R) = leptin receptor (OB—R) (Homo sapiens, UniProt P48357); test: Ligand-receptor binding assay in vitro with immobilized receptor; settings: recombinant OB—R
leptin receptor (OB—R), sequence (P48357 22-1165, species assumed): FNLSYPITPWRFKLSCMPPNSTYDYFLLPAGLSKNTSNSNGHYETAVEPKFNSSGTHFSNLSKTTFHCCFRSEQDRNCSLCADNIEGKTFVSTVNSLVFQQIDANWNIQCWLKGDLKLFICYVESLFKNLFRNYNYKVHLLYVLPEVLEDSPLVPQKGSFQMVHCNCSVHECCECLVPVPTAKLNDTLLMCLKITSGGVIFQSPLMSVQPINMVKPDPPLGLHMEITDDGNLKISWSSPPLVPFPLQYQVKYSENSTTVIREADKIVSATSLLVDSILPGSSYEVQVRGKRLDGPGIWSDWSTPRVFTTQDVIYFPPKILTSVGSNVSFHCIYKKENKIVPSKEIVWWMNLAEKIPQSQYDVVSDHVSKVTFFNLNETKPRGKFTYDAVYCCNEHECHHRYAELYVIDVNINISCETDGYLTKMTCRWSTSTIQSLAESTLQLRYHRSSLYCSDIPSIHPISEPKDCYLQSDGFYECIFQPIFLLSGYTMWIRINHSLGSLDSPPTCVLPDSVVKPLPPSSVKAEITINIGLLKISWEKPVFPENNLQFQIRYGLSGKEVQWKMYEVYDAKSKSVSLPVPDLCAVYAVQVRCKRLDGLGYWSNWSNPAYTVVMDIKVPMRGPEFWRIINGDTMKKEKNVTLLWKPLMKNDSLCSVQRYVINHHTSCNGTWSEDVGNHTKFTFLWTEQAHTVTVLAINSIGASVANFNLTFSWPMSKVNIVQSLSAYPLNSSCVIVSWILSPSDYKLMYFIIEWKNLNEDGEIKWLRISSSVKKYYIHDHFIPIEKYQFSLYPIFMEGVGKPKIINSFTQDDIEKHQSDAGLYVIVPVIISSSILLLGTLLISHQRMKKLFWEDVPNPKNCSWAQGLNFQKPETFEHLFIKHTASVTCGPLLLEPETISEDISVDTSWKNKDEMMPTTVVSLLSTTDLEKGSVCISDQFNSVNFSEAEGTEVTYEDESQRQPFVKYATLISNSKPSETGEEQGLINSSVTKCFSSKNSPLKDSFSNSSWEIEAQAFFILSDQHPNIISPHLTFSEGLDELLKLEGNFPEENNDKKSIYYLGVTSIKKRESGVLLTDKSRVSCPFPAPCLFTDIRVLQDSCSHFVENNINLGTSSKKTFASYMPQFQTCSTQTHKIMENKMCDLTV
Description: as §1

[3] = target: vascular endothelial growth factor receptor-1 (VEGFR1) (Homo sapiens, UniProt P17948); test: as above; settings: recombinant VEGFR1
vascular endothelial growth factor receptor-1 (VEGFR1), sequence (P17948 27-1338, species assumed): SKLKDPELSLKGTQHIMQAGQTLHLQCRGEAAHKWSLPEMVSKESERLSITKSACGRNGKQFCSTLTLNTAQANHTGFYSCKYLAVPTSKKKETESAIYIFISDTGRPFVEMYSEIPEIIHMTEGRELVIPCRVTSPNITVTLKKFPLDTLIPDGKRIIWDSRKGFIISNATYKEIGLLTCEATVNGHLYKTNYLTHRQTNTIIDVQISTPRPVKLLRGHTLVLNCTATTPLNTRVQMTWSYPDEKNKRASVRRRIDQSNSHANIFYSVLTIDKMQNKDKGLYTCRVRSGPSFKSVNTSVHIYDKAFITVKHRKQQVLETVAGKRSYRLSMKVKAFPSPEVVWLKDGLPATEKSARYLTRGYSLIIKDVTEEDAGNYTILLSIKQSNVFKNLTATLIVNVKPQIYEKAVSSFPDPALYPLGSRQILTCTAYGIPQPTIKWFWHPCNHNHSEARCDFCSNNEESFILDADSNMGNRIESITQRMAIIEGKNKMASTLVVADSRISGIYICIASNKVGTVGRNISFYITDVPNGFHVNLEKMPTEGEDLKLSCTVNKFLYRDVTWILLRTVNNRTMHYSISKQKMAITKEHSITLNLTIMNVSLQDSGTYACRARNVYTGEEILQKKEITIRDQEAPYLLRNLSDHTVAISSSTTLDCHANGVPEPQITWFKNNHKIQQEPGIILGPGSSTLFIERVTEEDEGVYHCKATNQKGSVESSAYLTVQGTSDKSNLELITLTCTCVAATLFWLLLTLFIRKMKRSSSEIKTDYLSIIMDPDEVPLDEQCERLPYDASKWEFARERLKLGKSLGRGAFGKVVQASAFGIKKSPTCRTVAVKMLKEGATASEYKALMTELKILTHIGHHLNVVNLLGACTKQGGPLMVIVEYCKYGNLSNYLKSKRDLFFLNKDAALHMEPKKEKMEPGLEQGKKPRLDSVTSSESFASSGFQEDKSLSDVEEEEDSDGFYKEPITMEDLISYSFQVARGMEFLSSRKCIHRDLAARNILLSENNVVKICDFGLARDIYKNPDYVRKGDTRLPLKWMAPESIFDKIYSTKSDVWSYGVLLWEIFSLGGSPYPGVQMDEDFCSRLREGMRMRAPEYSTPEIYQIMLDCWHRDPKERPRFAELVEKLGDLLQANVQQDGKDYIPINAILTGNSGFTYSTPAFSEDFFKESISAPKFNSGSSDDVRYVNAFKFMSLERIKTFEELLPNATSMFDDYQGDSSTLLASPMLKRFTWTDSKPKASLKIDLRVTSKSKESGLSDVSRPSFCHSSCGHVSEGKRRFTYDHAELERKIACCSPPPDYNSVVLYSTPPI
Description: as §1

Molecule: CRVDFSKGC [reference compound]
- phage binding to immobilized receptor (IL-11Rα): Neither of the control phage exhibited selective binding

Molecule: GER [tripeptide motif isolated from prostate]
- Motif Frequency (prostate): 0.9

Molecule: CNVSDKSC
- share of the clones analyzed [1]: 55%
- positive serum reactivity ([2]; 71 age-matched healthy men (control)): 7%
- positive serum reactivity ([2]; metastatic androgen-independent prostate cancer): 76%
- positive serum reactivity ([2]; organ-confined prostate cancer patients): 6%
- positive serum reactivity ([2]; patients with androgen-dependent tumors): 29%

Molecule: VMGSVTG [FX]
- homing to adipose tissue compared to control fd-tet phage (adipose tissue): some elevation of homing to adipose tissue; also recorded: several orders of magnitude higher adipose localization

Molecule: EGR [tripeptide motif isolated from prostate]
- Motif Frequency (prostate): 1.0

Molecule: RRAGGS [prostate-targeting motif, IL-11 peptide mimic]
- phage binding to tissue section (normal prostate): specifically bound to the endothelium and epithelium of normal prostate

Molecule: HGGVG [motif of a control phage that localized to skin tissue, reference compound]
- phage binding to tissue section (normal prostate): did not bind to prostate tissue
- phage binding to tissue section (skin): specifically recognized blood vessels in the skin

Molecule: RGEVLWS [FC]
- homing to adipose tissue compared to control fd-tet phage (adipose tissue): some elevation of homing to adipose tissue

Molecule: CC[C@@]1(O)C(=O)OCc2c1cc1n(c2=O)Cc2cc3c(CN(C)C)c(O)ccc3nc2-1 [topotecan]
- reporter gene transduction relative to controls (MDA-MB-435 cells): several fold higher

Molecule: N.N.[Cl][Pt][Cl] [cisplatin]
- reporter gene transduction relative to controls (MDA-MB-435 cells): several fold higher

Molecule: CGRRAGGSC
- phage binding to immobilized receptor (IL-11Rα): significant amount of binding
- phage binding to immobilized receptor (leptin receptor (OB—R)): Neither OB—R nor VEGFR1 showed binding
- phage binding to immobilized receptor [3]: Neither OB—R nor VEGFR1 showed binding

Molecule: GVL [tripeptide motif isolated from prostate]
- Motif Frequency (prostate): 2.3

Molecule: KGGRAKD [FA]
- homing to adipose tissue compared to control fd-tet phage (adipose tissue): some elevation of homing to adipose tissue

Molecule: TREVHRS [FE]
- homing to adipose tissue compared to control fd-tet phage (adipose tissue): some elevation of homing to adipose tissue

Molecule: AGG [tripeptide motif isolated from prostate]
- Motif Frequency (prostate): 2.5

B1: IL-11: native IL-11 ligand, cytokine (protein)
chain: PGPPPGPPRVSPDPRAELDSTVLLTRSLLADTRQLAAQLRDKFPADGDHNLDSLPTLAMSAGALGALQLPGVLTRLRADLLSYLRHVQWLRRAGGSSLKTLEPELGTLQARLDRLLRRLQLLMSRLALPQPPPDPPAPPLAPPSSAWGGIRAAHAILGGLHLTLDWAVRGLLLLKTRL
- inhibition of CGRRAGGSC-phage binding to IL-11Rα (IL-11Rα; concentration of about 0.1 nM): ~100%
